Consider three compounds from ChEMBL document CHEMBL1811818, “Arthrobotrisins A-C, oligosporons from the nematode-trapping fungus Arthrobotrys oligospora” (2011).

SMILES strings stand for the structures. Active and inactive are the calls of the source. No cut-off for these calls is given here.

Test [1] relates to Bacillus sp. In words: Antibacterial activity against Bacillus sp. 3.38 at 150 ug by agar diffusion assay. As to conditions: Bacillus sp. (in: firmicutes), read-out: IZ. The format is functional. On the technique in general: In agar diffusion tests the substance spreads into inoculated agar from a disc or well.
Test [2] has as its system Bacillus sp. In words: Antibacterial activity against Bacillus sp. 3.38 at 300 ug by agar diffusion assay. Type of test: functional. Particulars: Bacillus sp. (in: firmicutes), read-out: IZ.
For the next test, the system named is Panagrellus redivivus. In words: Nematicidal activity against Panagrellus redivivus assessed as effect on larval development at 200 ug/mL after 48 hrs. Type of test: functional, organism-based.
The test system of test [3] is Bacillus subtilis. In words: Antibacterial activity against Bacillus subtilis 3.34 at 25 ug by agar diffusion assay. The format is functional. As to conditions: read-out: IZ.
The test system of test [4] is Bacillus subtilis. In words: Antibacterial activity against Bacillus subtilis 3.34 at 50 ug by agar diffusion assay. The format is functional. Particulars: read-out: IZ.
The test system of test [5] is Bacillus subtilis. In words: Antibacterial activity against Bacillus subtilis 3.34 assessed as by agar diffusion assay. Type of test: functional.
Test [6] concerns Bacillus sp. Briefly: Antibacterial activity against Bacillus sp. 3.38 at 50 ug by agar diffusion assay. Type of test: functional. As to conditions: Bacillus sp. (in: firmicutes), read-out: DIZ.
The subject of another test is Staphylococcus aureus. Briefly: Antibacterial activity against Staphylococcus aureus 3.17 at 50 ug by agar diffusion assay. The format is functional. As to conditions: read-out: DIZ.
The test system of test [7] is Bacillus subtilis. In words: Antibacterial activity against Bacillus subtilis 3.34 at 10 ug by agar diffusion assay. The format is functional. As to conditions: read-out: DIZ.

Turning to `CC(C)=CCC/C(C)=C/C[C@H](O)/C(C)=C/[C@H](O)[C@]12O[C@H]1[C@H](O)C(CO)=C[C@@H]2O` [ARTHROBOTRISIN B], the zone of inhibition at 150 µg/disc with Bacillus sp. [1] stood at 4.7 mm. Moreover, the zone of inhibition at 300 µg/disc with Bacillus sp. [2] was found to be 8 mm. For the same compound, in the test on Panagrellus redivivus, the result was inactive.
Regarding `CC(C)=CCC/C(C)=C/C[C@H](O)/C(C)=C/[C@H](O)[C@]12O[C@H]1[C@@H](O)C(CO)=C[C@@H]2O` [ARTHROBOTRISIN C], the zone of inhibition at 25 µg/disc with Bacillus subtilis [3] came out at 14.2 mm. In addition, the figures for the zone of inhibition at 50 µg/disc in the test with Bacillus subtilis [4], in the test on Bacillus sp. [6] and in the test on Staphylococcus aureus were 19.4 mm, 9.1 mm and 7 mm, respectively. In the test on Bacillus subtilis [5], the MIC amounted to 5 µg. In addition, the outcome with Panagrellus redivivus was inactive.
Consider `O=C(N[C@H](CO)[C@H](O)c1ccc([N+](=O)[O-])cc1)C(Cl)Cl` [CHLORAMPHENICOL], for which, in the test on Bacillus subtilis [7], the zone of inhibition at 10 µg/disc was found to be 36.3 mm.
